Source: US8178668B2, “2-aminopyridine kinase inhibitors” (OSI Pharmaceuticals, LLC, priority 2008, dated 2012)
Where a name gives a salt, the structure may show the parent alone.

Assays:
RON (human) = RON (human) (Homo sapiens, UniProt Q04912); experiment: RON kinase AlphaScreen assay (Km of ATP); type: biochemical; details: ATP at Km; at least duplicate experiments
Procedure, shortened: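 Human RON phosphorylated biotinylated poly(Glu,Tyr) (200 ng/μL) at Km ATP in 50 mM HEPES pH 7.4, 12.5 mM MgCl2, 1% glycerol, 0.334 mM vanadate, 1% DMSO. Reaction ran 30 min at RT after enzyme addition. Product was detected by AlphaScreen with PT66 beads after 1 h.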

MET (human) = MET (human) (Homo sapiens, UniProt P08581); experiment: MET kinase AlphaScreen assay (Km of ATP); type: biochemical; details: ATP at Km; at least duplicate experiments
Procedure, shortened: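 Biotinylated poly(Glu,Tyr) (200 ng/μL) phosphorylated by MET with ATP at an enzyme-optimized level, in 50 mM HEPES pH 7.4 with Mg2+/Mn2+ and vanadate, 1% DMSO. Reaction runs 60 min at RT. PT66 AlphaScreen donor/acceptor beads are added and signal is read after 1 h.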

MET (human), sequence (P08581 25-1390): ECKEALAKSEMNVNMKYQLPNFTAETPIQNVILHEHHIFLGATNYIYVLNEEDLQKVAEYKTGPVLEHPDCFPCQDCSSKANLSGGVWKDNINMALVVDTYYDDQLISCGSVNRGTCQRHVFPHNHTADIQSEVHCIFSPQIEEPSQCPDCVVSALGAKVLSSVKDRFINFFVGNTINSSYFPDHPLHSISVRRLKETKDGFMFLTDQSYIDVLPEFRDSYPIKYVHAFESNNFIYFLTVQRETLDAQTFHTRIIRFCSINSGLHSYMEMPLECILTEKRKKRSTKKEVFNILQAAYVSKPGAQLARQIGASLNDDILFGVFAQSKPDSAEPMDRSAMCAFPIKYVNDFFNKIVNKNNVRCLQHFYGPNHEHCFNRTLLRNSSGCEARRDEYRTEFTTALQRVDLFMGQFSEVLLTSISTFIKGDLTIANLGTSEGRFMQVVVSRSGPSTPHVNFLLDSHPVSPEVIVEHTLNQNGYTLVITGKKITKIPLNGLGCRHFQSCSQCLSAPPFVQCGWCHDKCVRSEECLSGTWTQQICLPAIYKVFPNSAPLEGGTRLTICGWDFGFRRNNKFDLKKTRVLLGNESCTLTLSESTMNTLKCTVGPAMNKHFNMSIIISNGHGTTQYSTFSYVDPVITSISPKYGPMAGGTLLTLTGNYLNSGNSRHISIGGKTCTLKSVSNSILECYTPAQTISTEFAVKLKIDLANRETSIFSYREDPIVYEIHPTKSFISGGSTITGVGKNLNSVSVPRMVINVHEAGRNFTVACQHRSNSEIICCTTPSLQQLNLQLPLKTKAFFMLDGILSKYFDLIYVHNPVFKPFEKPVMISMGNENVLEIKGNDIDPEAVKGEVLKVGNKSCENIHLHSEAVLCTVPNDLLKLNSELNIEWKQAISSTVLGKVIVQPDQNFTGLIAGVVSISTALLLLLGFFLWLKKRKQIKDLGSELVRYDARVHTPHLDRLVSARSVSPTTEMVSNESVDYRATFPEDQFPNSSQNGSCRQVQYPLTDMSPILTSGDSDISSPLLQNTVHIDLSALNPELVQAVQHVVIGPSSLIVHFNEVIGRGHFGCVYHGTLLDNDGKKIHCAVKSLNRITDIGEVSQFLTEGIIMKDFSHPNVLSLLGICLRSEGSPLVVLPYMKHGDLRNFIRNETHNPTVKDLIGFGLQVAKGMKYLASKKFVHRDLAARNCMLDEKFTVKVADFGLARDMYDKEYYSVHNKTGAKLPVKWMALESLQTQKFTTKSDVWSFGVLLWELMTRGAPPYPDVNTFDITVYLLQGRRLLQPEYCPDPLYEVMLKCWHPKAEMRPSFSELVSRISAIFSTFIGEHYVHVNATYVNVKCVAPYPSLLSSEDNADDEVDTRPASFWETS
RON (human), sequence (Q04912 25-1400): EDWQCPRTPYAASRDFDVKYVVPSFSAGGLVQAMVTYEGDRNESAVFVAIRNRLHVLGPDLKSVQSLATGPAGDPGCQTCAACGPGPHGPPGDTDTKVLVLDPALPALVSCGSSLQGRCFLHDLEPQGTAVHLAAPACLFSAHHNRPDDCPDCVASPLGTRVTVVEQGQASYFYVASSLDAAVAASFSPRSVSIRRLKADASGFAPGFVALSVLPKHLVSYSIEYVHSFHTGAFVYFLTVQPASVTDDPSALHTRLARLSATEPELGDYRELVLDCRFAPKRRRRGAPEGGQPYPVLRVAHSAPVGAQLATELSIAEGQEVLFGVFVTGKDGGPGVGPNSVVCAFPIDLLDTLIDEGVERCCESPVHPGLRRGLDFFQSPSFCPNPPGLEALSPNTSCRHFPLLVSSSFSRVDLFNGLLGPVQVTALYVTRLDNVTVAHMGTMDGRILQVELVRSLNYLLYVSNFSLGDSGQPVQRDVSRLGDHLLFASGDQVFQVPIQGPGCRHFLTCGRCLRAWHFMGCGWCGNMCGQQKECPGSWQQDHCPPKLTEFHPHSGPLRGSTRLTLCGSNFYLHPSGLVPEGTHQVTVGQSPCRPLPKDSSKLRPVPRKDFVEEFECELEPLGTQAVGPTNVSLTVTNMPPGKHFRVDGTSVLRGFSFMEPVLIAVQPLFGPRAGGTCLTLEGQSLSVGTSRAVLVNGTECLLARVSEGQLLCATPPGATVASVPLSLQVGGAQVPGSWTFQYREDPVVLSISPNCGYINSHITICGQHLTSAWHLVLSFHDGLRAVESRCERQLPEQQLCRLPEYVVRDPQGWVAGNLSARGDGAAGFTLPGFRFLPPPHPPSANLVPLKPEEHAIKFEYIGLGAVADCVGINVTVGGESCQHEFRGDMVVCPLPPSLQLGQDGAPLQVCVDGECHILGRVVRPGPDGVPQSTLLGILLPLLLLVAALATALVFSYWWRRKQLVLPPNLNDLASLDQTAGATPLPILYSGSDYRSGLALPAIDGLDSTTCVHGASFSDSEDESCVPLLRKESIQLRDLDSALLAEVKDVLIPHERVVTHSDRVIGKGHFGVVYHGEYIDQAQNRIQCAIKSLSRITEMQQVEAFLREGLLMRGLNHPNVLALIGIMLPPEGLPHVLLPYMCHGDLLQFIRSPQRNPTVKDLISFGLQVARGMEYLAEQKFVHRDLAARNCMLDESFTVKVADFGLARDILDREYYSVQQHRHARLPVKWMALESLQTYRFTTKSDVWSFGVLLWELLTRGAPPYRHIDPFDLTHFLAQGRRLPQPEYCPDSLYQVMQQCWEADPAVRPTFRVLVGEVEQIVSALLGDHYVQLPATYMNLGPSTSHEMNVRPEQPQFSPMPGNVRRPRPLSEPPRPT

Row | SMILES | IC50 (RON (human)) [nM] | IC50 (MET (human)) [nM]
1 | Nc1ncc(-c2cnn(CCC(=O)N3CCC(O)CC3)c2)cc1-c1nc2ccccc2s1 [Example 290, 3-[4-(6-Amino-5-benzothiazol-2-ylpyridin-3-yl)-pyrazol-1-yl]-1-(4-hydroxypiperidin-1-yl)-propan-1-one] | 1000 to 20000 | 100 to 1000
2 | COCCN(CCOC)C(=O)CCn1cc(-c2cnc(N)c(-c3nc4ccccc4s3)c2)cn1 [Example 294, 3-[4-(6-Amino-5-benzothiazol-2-ylpyridin-3-yl)-pyrazol-1-yl]-N,N-bis-(2-methoxyethyl)-propionamide] | 1000 to 20000 | 1000 to 20000
3 | Nc1ncc(-c2cnn(C3CCNCC3)c2)cc1-c1nc2c(s1)CCCC2 [Example 298, 5-(1-Piperidin-4-yl-1H-pyrazol-4-yl)-3-(4,5,6,7-tetrahydro-benzothiazol-2-yl)-pyridin-2-ylamine] | ≤ 100 | ≤ 100
4 | Nc1ncc(-c2cnn(C3CCNCC3)c2)cc1-c1nc2c(s1)CCCCC2 [Example 299, 5-(1-Piperidin-4-yl-1H-pyrazol-4-yl)-3-(5,6,7,8-tetrahydro-4H-cycloheptathiazol-2-yl)-pyridin-2-ylamine] | 100 to 1000 | 100 to 1000
5 | Nc1ncc(-c2cnn(C3CCNCC3)c2)cc1N1CCc2ccccc2C1 [Example 300, 3-(3,4-Dihydro-1H-isoquinolin-2-yl)-5-(1-piperidin-4-yl-1H-pyrazol-4-yl)-pyridin-2-ylamine] | 1000 to 20000 | 100 to 1000
6 | Nc1ncc(-c2cnn(C3CCNCC3)c2)cc1N1CCc2c(F)cccc2C1 [Example 301, 3-(5-Fluoro-3,4-dihydro-1H-isoquinolin-2-yl)-5-(1-piperidin-4-yl-1H-pyrazol-4-yl)-pyridin-2-ylamine] | 1000 to 20000 | 1000 to 20000
7 | Nc1ncc(-c2cnn(C3CCNCC3)c2)cc1N1CCc2c(Cl)cccc2C1 [Example 302, 3-(5-Chloro-3,4-dihydro-1H-isoquinolin-2-yl)-5-(1-piperidin-4-yl-1H-pyrazol-4-yl)-pyridin-2-ylamine] | 100 to 1000 | 100 to 1000
8 | Nc1ncc(-c2cnn(C3CCNCC3)c2)cc1N1CCc2c(F)ccc(F)c2C1 [Example 303, 3-(5,8-Difluoro-3,4-dihydro-1H-isoquinolin-2-yl)-5-(1-piperidin-4-yl-1H-pyrazol-4-yl)-pyridin-2-ylamine] | 100 to 1000 | 100 to 1000
9 | Nc1ncc(-c2cnn(C3CCNCC3)c2)cc1-c1ccc2ccccc2c1 [Example 304, 3-Naphthalen-2-yl-5-(1-piperidin-4-yl-1H-pyrazol-4-yl)-pyridin-2-ylamine trihydrochloride] | 1000 to 20000 | 100 to 1000

Now from value to molecule:

Row | IC50 (RON (human)) [nM] | IC50 (MET (human)) [nM] | SMILES
10 | > 20000 | 1000 to 20000 | Nc1ncc(-c2cnn(CCC(=O)N3CCOCC3)c2)cc1-c1nc2ccccc2s1 [Example 291, 3-[4-(6-Amino-5-benzothiazol-2-ylpyridin-3-yl)-pyrazol-1-yl]-1-morpholin-4-ylpropan-1-one]
11 | > 20000 | 1000 to 20000 | COCCNC(=O)CCn1cc(-c2cnc(N)c(-c3nc4ccccc4s3)c2)cn1 [Example 292, 3-[4-(6-Amino-5-benzothiazol-2-ylpyridin-3-yl)-pyrazol-1-yl]-N-(2-methoxyethyl)-propionamide]
12 | 1000 to 20000 | 100 to 1000 | Nc1ncc(-c2cnn(CCC(=O)NCCO)c2)cc1-c1nc2ccccc2s1 [Example 293, 3-[4-(6-Amino-5-benzothiazol-2-ylpyridin-3-yl)-pyrazol-1-yl]-N-(2-hydroxyethyl)-propionamide]
13 | 1000 to 20000 | 100 to 1000 | CN(C)C(=O)CCn1cc(-c2cnc(N)c(-c3nc4ccccc4s3)c2)cn1 [Example 295, 3-[4-(6-Amino-5-benzothiazol-2-ylpyridin-3-yl)-pyrazol-1-yl]-N,N-dimethylpropionamide]
14 | 1000 to 20000 | 1000 to 20000 | CNC(=O)CCn1cc(-c2cnc(N)c(-c3nc4ccccc4s3)c2)cn1 [Example 296, 3-[4-(6-Amino-5-benzothiazol-2-ylpyridin-3-yl)-pyrazol-1-yl]-N-methylpropionamide]
15 | 1000 to 20000 | 100 to 1000 | NC(=O)CCn1cc(-c2cnc(N)c(-c3nc4ccccc4s3)c2)cn1 [Example 297, 3-[4-(6-Amino-5-benzothiazol-2-ylpyridin-3-yl)-pyrazol-1-yl]-propionamide]
